Results reported in patent publication US12157746B2, “Tetrahydro-1H-pyrazino[2,1-a]isoindolylquinoline compounds for the treatment of autoimmune disease” (F. HOFFMANN-LA ROCHE AG, priority 2018, dated 2024).
Converted amounts (≈) assume the structure as drawn.

Experiments:
[1] = system: Balb/c 3T3 mouse fibroblasts; assay: 3T3 in vitro phototoxicity assay; type: cell-based; conditions: Neutral Red uptake; for Phototoxicity factor: Factor=IC50(−UV)/IC50(+UV), cut-off factor >5; for IC50: Mus musculus, BALB/c3T3, light or radiation study, with approx. 5 J/cm2 UVA light
Source text: 3T3 In Vitro Phototoxicity Assay
Phototoxicity is defined as a toxic response that is elicited after the first exposure of the skin to certain chemicals and subsequent exposure to light, or that is induced similarly by skin irradiation after systemic administration of a chemical substance. The assay used in this study is designed to detect the phototoxic potential of a chemical by using a simple in vitro cytotoxicity assay with Balb/c 3T3 mouse fibroblasts. The principle of this test is a comparison of the cytotoxicity of a chemical when tested with and without exposure to a non-toxic dose of UVA-light. Cytotoxicity is expressed as a dose dependent reduction of the growth rate of cells as determined by uptake of the vital dye Neutral Red one day after treatment.
A small amount of substance was weighed and formulated freshly in DMSO just before the start of the exposure of the cells. This stock solution or appropriate dilutions with DMSO were added to the cell suspensions to obtain the required final concentrations. All solutions were generally prepared in Eppendorf caps and discarded after use.
For this study the Neutral Red uptake (NRU) assay of Borenfreund and Puemer (Borenfreund, E, Puemer J A. Toxicity determined in vitro by morphological alterations and Neutral Red absorption. Toxicology Lett. 1985; 24:119-124) modified according to INVITTOX protocol No 78 (ERGATT/FRAME data bank of in vitro techniques in toxicology. INVITTOX PROTOCOL No 78. 3T3 NRU Phototoxicity Assay. March 1994) has been adapted to examine a possible phototoxic potential of the test item. This assay is based on the active uptake of the Neutral Red dye into the lysosomes of cultured murine fibroblasts. Because lysosomal membranes are known to be a site of action of many phototoxic compounds, this assay can provide a measure of potential for phototoxic injury.
A murine fibroblasts clone A 31 (ATCC no. CCL 163—passage No. 108) were cultured in 175 cm2 tissue culture grade flasks, containing sDMEM (Dulbecco's Minimal Essential Medium, supplemented with 10% fetal calf serum, 2 mM L-glutamine, 100 units/ml Penicillin and 100 μg/ml streptomycin) at 37° C. in a humidified atmosphere of 6% C02. Before cells approach confluence they were removed from flasks by trypsinisation. Prior to use in an assay, the cells were transferred to 96-well microtiter plates at a concentration of 1×10^4 cells/well in 100 μl volumes of sDMEM and allowed to attach for 24 h.
For incubation with murine fibroblasts, the test item was diluted in PBS/3% DMSO (detailed concentrations see in results).
Culture medium (Dulbecco's Modified Eagle Medium (DMEM), GlutaMAX (Gibco Ref 21885-025), 10% Fetal Bovine Serum (FBS) (Gibco Ref 10270-106), 100 IU/ml Penicillin and 100 μg/ml Streptomycin (Gibco Ref 15140-122)) was removed from the wells and murine fibroblasts were washed with PBS. Afterwards 100 μL of PBS/3% DMSO containing the test item was added and target cells were incubated for 1 h at 37° C. with 6% CO2.
For each test item the microtiter plates were prepared according to Table 4. “UVA plates” were exposed to approx. 5 J/cm2 UVA light, the “Dark plates” were kept in the dark and served as cytotoxicity control. Plates with chlorpromazine hydrochloride served as positive control. UV flux was measured with a UV-meter (Dr. Gröbel RM21).
Following UV irradiation, the test item was removed from the wells (one washing step with PBS) and replaced with sDMEM. Target cells were then incubated overnight at 37° C. in 6% CO2.
Each plate contained wells with cells and solvent but without test item which were either not incubated with Neutral Red solution (0% standard—S1) or were stained with Neutral Red (100% standard—S2) for calculation of the standard cell viability curve. Wells labeled with U01-U08 contained the different test item concentrations.
After the incubation the wells to be assayed were filled with 100 μL of the sDMEM containing Neutral Red. […]

hERG K+ channel = biological target: T1, hERG K+ channel (Homo sapiens, UniProt Q12809); assay: hERG channel inhibition assay; type: cell-based; conditions: patch-clamp (voltage-clamp, whole-cell); for IC50: CHO cells expressing hERG; for IC20: human, CHO cells stably expressing hERG
T1 construct: expressed in transfected cells; host or cells: CHO (Chinese hamster ovary) cells, CHOhERG
T1 sequence (Q12809 whole entry): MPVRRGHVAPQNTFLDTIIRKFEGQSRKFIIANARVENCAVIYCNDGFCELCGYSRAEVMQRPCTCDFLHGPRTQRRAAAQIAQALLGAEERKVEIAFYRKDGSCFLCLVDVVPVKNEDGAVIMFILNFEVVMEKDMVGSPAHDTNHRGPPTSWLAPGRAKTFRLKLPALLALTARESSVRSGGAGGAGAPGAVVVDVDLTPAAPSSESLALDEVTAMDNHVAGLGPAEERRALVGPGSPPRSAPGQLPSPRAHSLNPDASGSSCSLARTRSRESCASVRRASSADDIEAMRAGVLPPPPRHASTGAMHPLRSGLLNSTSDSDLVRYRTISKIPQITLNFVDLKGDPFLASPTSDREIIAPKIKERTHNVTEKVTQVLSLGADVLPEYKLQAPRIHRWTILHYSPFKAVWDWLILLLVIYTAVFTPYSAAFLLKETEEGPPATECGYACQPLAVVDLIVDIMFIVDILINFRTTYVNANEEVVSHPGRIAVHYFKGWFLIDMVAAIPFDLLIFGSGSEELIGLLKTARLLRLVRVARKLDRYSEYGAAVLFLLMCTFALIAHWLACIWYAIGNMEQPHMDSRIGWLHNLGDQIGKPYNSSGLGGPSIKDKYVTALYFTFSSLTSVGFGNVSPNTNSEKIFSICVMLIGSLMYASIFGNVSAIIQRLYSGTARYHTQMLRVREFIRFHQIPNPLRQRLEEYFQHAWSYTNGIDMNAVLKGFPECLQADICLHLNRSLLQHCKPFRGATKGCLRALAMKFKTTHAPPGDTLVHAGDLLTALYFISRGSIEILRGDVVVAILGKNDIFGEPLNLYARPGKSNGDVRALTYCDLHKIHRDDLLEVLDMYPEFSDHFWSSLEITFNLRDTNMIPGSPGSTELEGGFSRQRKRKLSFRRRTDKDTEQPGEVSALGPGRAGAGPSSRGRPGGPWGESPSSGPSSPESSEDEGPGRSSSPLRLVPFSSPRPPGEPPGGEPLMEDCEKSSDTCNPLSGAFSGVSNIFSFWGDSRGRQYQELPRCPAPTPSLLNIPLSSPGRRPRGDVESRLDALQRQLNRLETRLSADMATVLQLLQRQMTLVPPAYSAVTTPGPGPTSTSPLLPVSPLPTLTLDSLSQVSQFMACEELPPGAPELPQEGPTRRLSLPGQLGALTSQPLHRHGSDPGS
Procedure: hERG Channel Inhibition Assay
The hERG K^+ channels were cloned in humans and stably expressed in a CHO (Chinese hamster ovary) cell line. CHOhERG cells were used for patch-clamp (voltage-clamp, whole-cell) experiments. Cells were stimulated by a voltage pattern to activate hERG channels and conduct IKhERG currents (rapid delayed outward rectifier potassium current of the hERG channel). After the cells were stabilized for a few minutes, the amplitude and kinetics of IKhERG were recorded at a stimulation frequency of 0.1 Hz (6 bpm). Thereafter, the test compound was added to the preparation at increasing concentrations. For each concentration, an attempt was made to reach a steady-state effect, usually, this was achieved within 3-10 min at which time the next highest concentration was applied. The amplitude and kinetics of IKhERG are recorded in each concentration of the drug which were compared to the control values (taken as 100%). (references: Redfem W S, Carlsson L, Davis A S, Lynch W G, MacKenzie I, Palethorpe S, Siegl P K, Strang I, Sullivan A T, Wallis R, Camm A J, Hammond T G. 2003; Relationships between preclinical cardiac electrophysiology, clinical QT interval prolongation and torsade de pointes for a broad range of drugs: evidence for a provisional safety margin in drug development. Cardiovasc. Res. 58:32-45, Sanguinetti M C, Tristani-Firouzi M. 2006; hERG potassium channels and cardiac arrhythmia. Nature 440:463-469, Webster R, Leishman D, Walker D. 2002; Towards a drug concentration effect relationship for QT prolongation and torsades de pointes. Curr. Opin. Drug Discov. Devel. 5:116-26).

SMILES	Phototoxicity factor [1]	IC50 [1] [µg/mL]	IC50 (hERG K+ channel) [µM]	IC20 (hERG K+ channel) [µM]
C[C@@H]1CN(c2ccc(C#N)c3ncccc23)C[C@@H]2c3ccc(N[C@H]4CNC[C@H]4F)cc3CN12 [Example 30, 5-[(4R,10bS)-8-[[(3S,4R)-4-fluoropyrrolidin-3-yl]amino]-4-methyl-3,4,6,10b-tetrahydro-1H-pyrazino[2,1-a]isoindol-2-yl]quinoline-8-carbonitrile]	>1.9	54.6 (≈ 123 µM)	–	–
CO[C@@H]1CN(c2ccc3c(c2)CN2[C@H](C)CN(c4ccc(C#N)n5nccc45)C[C@H]32)C[C@H]1N [Example 94, 4-[(4R,10bS)-8-[(3R,4R)-3-amino-4-methoxy-pyrrolidin-1-yl]-4-methyl-3,4,6,10b-tetrahydro-1H-pyrazino[2,1-a]isoindol-2-yl]pyrazolo[1,5-a]pyridine-7-carbonitrile]	1.99	39 (≈ 87.9 µM)	> 20	> 10
C[C@@H]1CN(c2ccc(C#N)c3ncccc23)C[C@@H]2c3ccc(N4CCOC[C@@H](N)C4)cc3CN12 [Example 54B, 5-[(4R,10bS)-8-[(6S)-6-amino-1,4-oxazepan-4-yl]-4-methyl-3,4,6,10b-tetrahydro-1H-pyrazino[2,1-a]isoindol-2-yl]quinoline-8-carbonitrile]	1.00	> 100	> 20	> 10
C[C@@H]1CN(c2ccc(C#N)c3ncccc23)C[C@@H]2c3ccc(N4CC(C)(N)C4)cc3CN12 [Example 39, 5-[(4R,10bS)-8-(3-amino-3-methyl-azetidin-1-yl)-4-methyl-3,4,6,10b-tetrahydro-1H-pyrazino[2,1-a]isoindol-2-yl]quinoline-8-carbonitrile]	1.00	> 100	> 20	> 10
C[C@@H]1CN(c2ccc(C#N)c3ncccc23)C[C@@H]2c3ccc(N4CC5CNCC(C4)O5)cc3CN12 [Example 14, 5-[(4R,10bS)-4-methyl-8-(9-oxa-3,7-diazabicyclo[3.3.1]nonan-3-yl)-3,4,6,10b-tetrahydro-1H-pyrazino[2,1-a]isoindol-2-yl]quinoline-8-carbonitrile]	1.00	> 100	> 20	> 10
